The source of these data is patent publication US8822515B2, “Heterocyclic benzoxazole compositions as inhibitors of hepatitis C virus” (University of Maryland, Baltimore County, priority 2009, dated 2014).

pEC50, pIC50: −log10 of the molar value. “Also recorded” adds a separate entry of the source. Read-outs that look alike come from different tables or passages of the source. Bounds are passed on as bounds.

The test system of data set [1] is HCV replicon in Huh7 ET (luc-ubi-neo/ET) cell line. As to the kind of experiment: HCV replicon assay (luciferase based), antiviral activity. The data set is classed as cell-based, Hepatitis C Virus. Set-up: SI50: unit not given here. To be noted: for pEC50: Hepatitis C virus, Huh7 ET; for SI50: selectivity index, luciferase based replicon assay; for activity against HCV in replicon assay (in words): whole cells. The text has this: (§1) To determine if the compounds are active in whole cells, they were screened using an HCV replicon assay. […] Compound 2b also has similar selectivity towards HCV as human interferon alpha-2b (rIFNa-2b), the positive control.
In the replicon assays a Huh7 ET (luc-ubi-neo/ET) cell line is used. This particular construct contain the 5′NTR (IRES) of HCV, producing a firefly luciferase (luc), ubiquitin (ubiq) and neomycin phosphotranferase (neo) fusion protein. This modification makes the cell line more robust and provides the additional stability needed for antiviral screening. […]
A general note: Replicon systems follow genome replication, usually without infectious particles.

The target in data set [2] is T1, HCV NTPase/helicase (Hepatitis C virus genotype 1a, UniProt P27958). Put plainly: NTPase/Helicase assay, HCV helicase, DNA substrate. In kind it is biochemical. To be noted: for IC50 / inhibition of NTPase/helicase of HCV (in words) / pIC50: DNA substrate; for IC50: read-out: HCV Helicase (IC50) DNA (converted); for pIC50: HCV Helicase (IC50) DNA. How it is done: Inhibitory activity of HCV was measured using a DNA substrate.
NTPase/Helicase activity determined by a previously described method. Helicase activity was determined as a function of increasing concentrations of the compounds in the presence of ATP adjusted to 105 μM, 235 μM, for HCV, JEV, and DENV NTPase/Helicase, respectively and […] of DNA substrate (concentration of nucleotide base). The substrate and released strand were separated in TBE polyacrylamide gel and visualized by exposition of dried gel onto X-ray film for 20 h. The part of the gels corresponding to the released strand were excised, and the ^32P radioactivity was quantified.

Data set [3] deals with T1, HCV NTPase/helicase. Put plainly: NTPase/Helicase assay, HCV helicase, RNA substrate. The data set is classed as biochemical. The protocol: NTPase/Helicase activity determined by a previously described method. […] The substrate and released strand were separated in TBE polyacrylamide gel and visualized by exposition of dried gel onto X-ray film for 20 h. The part of the gels corresponding to the released strand were excised, and the ^32P radioactivity was quantified.

Data set [4] concerns Huh7 ET (luc-ubi-neo/ET) cell line. Put plainly: HCV replicon assay (luciferase based), cytotoxicity. The data set is classed as cell-based. To be noted: cytotoxicity in luciferase based replicon assay, high test conc 20 μM (rIFNa-2b 2).
Source text: as §1
In the replicon assays a Huh7 ET (luc-ubi-neo/ET) cell line is used. This particular construct contain the 5′NTR (IRES) of HCV, producing a firefly luciferase (luc), ubiquitin (ubiq) and neomycin phosphotranferase (neo) fusion protein. This modification makes the cell line more robust and provides the additional stability needed for antiviral screening. The effects of the drug were examined in triplicate at a single high-test concentration of 20 μM on HCV RNA-derived LUC activity and cytotoxicity.

A further data set addresses HCV ATPase (Hepatitis C virus genotype 1a, UniProt P27958). Put plainly: ATPase analysis of HCV NTPase/helicase. The data set is classed as biochemical.
The next data set relates to integrase. Put plainly: Integrase test. The data set is classed as biochemical.
For another data set, the system named is HCV. As to the kind of experiment: RNA based confirmatory assay, antiviral activity. The data set is classed as cell-based, Hepatitis C Virus. On the set-up: SI50: unit not given here. Conditions: for pEC50: Hepatitis C virus; for SI50: selectivity index, RNA based confirmatory assay.
A short description of data set [5]: RNA based confirmatory assay, cytotoxicity. To be noted: cytotoxicity in RNA based confirmatory assay; high test conc 20 μM (rIFNa-2b 2). In kind it is cell-based.
[6] abbreviates: read-out: HCV Helicase (IC50) RNA.
Where [7] appears, read: in brackets, molar value in brackets.
Setting [8] is: HCV Helicase (IC50) RNA, in brackets, molar value in brackets.

HCV ATPase, sequence (P27958 1027-1657): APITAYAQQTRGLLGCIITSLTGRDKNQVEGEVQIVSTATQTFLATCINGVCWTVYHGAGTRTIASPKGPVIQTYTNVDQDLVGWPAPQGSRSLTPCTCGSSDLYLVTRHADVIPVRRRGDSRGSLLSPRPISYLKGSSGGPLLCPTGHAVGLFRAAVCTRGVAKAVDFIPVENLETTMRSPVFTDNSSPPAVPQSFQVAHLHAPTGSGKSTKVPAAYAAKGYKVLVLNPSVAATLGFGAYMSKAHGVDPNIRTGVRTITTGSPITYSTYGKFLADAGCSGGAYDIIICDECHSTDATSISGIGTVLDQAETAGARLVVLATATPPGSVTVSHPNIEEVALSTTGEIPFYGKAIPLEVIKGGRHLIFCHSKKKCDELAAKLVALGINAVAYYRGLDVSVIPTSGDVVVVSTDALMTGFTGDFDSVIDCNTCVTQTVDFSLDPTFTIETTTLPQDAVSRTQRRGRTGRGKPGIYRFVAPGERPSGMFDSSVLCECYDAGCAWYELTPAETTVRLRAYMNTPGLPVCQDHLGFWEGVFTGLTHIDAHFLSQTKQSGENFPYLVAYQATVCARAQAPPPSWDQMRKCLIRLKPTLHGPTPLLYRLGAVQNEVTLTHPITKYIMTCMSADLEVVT
T1 sequence (P27958 1027-1657): as above

As to `CNC(=O)c1cccc2oc(-c3ccccc3O)nc12` [Compound 10], in data set [1], the pEC50 (in general, −log10 of the EC50, conventionally taken in molar units) is 5.85; the SI50 was found to be 4.5; the “activity against HCV in replicon assay (in words)” value (from here on “activity against HCV”) is “still active against HCV”. For the same compound, on HCV NTPase/helicase [2], the “activity in HCV NTPase/helicase assay (in words)” value is “inactive; also recorded: did not show any activity” and the IC50 (in general, the midpoint of a concentration-inhibition curve) is more than 1860 µM. The negative logarithm of the IC50 (pIC50) (as a rule, the IC50 on a negative log10 scale, so that one unit is a factor of ten) at HCV NTPase/helicase [3] (setting [6]) was less than 2.73. The same compound had a pIC50 in [4] of 5.20. In addition, the pIC50 on HCV ATPase (read-out: ATPase (IC50)) is less than 2.73.
As to `COC(=O)c1cccc2oc(-c3ccc4c(OCc5ccccc5)cccc4c3O)nc12` [Compound 2a, 2-(5-Benzyloxy-1-hydroxy-naphthalene-2-yl)-benzoxazole-4-carboxylic Acid Methyl Ester], the melting point (as a rule, the temperature of the solid-liquid transition) fell in the range of 183.5 to 185 °C. In [1], this compound showed a pEC50 of 5.95 and an SI50 of more than 17.7. The activity against integrase entry with integrase was “inactive”. Also, on HCV NTPase/helicase [2], the “inhibition of NTPase/helicase of HCV (in words)” value is given as “inhibit” and the pIC50 is 5.42. The compound also showed a pIC50 at HCV NTPase/helicase [2] (setting [7]) of 5.42. Besides, the “inhibition of HCV helicase with RNA substrate (in words)” value (“inhibition of HCV helicase” for short) at HCV NTPase/helicase [3] is recorded as “inhibitory”. The compound further gave a pIC50 against HCV NTPase/helicase [3] (HCV Helicase (IC50) RNA) of 4.69. The same compound gave a pIC50 on HCV NTPase/helicase [3] (setting [8]) of 4.70. This compound also showed a pIC50 in [4] of less than 4.70. The compound also had a pIC50 against HCV ATPase of less than 2.93.
For the compound `O=C(O)c1cccc2oc(-c3ccccc3O)nc12` [Compound 9], in data set [1], the pEC50 was 6.68, the SI50 was 16.7 and the “activity against HCV” value is given as “still active against HCV”. At HCV NTPase/helicase [2], the “activity in HCV NTPase/helicase assay (in words)” value is “inactive; also recorded: did not show any activity” and the IC50 is more than 1960 µM. Besides, the pIC50 at HCV NTPase/helicase [3] (setting [6]) is less than 2.71. Besides, in [4], the pIC50 is 5.45. The pIC50 on HCV ATPase (read-out: ATPase (IC50)) was less than 2.71.
On to `COC(=O)c1cccc2oc(-c3ccc4ccc(OCc5ccccc5)cc4c3O)nc12` [Compound 2b, 2-(7-benzyloxy-1-hydroxy-napthalen-2-yl)-benzoxazole-4 Carboxylic Acid Methyl Ester], for which the pEC50 in data set [1] is 6.33. The compound also returned an SI50 in data set [1] of more than 42.6. Further, in the data set on integrase, the activity against integrase entry is “inactive”. At HCV NTPase/helicase [2], the “inhibition of NTPase/helicase of HCV (in words)” value was “inhibit”. Also, the pIC50 against HCV NTPase/helicase [2] was 5.59; on HCV NTPase/helicase [2] (setting [7]) it was 5.59; at HCV NTPase/helicase [3] (HCV Helicase (IC50) RNA), 4.70; against HCV NTPase/helicase [3] (setting [8]), 4.70; in [4] it was less than 4.70; at HCV ATPase it was less than 2.93. The “inhibition of HCV helicase” value against HCV NTPase/helicase [3] is reported as “inhibitory”.
Regarding `COC(=O)c1cccc2oc(-c3ccc4ccccc4c3O)nc12` [Compound 6, 2-(1-Hydroxy-naphthalen-2-yl)benzoxazole-4-carboxylic Acid Methyl Ester], the pEC50 was 6.68 in data set [1] and 5.88 in the data set on HCV. Besides, the SI50 in [1] is 7.67; in the data set on HCV it was more than 1.27. Besides, the pIC50 in [5] is 5.77; on HCV NTPase/helicase [2], 3.27; at HCV NTPase/helicase [2] (setting [7]) it was 3.27; on HCV NTPase/helicase [3] (HCV Helicase (IC50) RNA) it was 3.23; against HCV NTPase/helicase [3] (setting [8]) it was 3.23; in data set [4], 5.79. Besides, the pIC50 at HCV ATPase was less than 2.81. Further, the activity against integrase entry with integrase was “inactive”. Further, the “inhibition of NTPase/helicase of HCV (in words)” value against HCV NTPase/helicase [2] was “inhibit”. In addition, at HCV NTPase/helicase [3], the “inhibition of HCV helicase” value was “inhibitory”.
In the case of `COC(=O)c1cccc2oc(-c3ccccc3O)nc12` [Compound 8], the pEC50 in data set [1] is 6.49; in the data set on HCV, 6.24. In addition, the SI50 in data set [1] is reported as 16.2; in the data set with HCV, more than 8.93. In addition, the “activity against HCV” value in data set [1] is “still active against HCV”. The pIC50 in [5] is 5.29; on HCV NTPase/helicase [3] (setting [6]), less than 2.73; in [4], 5.28; at HCV ATPase (read-out: ATPase (IC50)), less than 2.73. Besides, the “activity in HCV NTPase/helicase assay (in words)” value at HCV NTPase/helicase [2] was “inactive; also recorded: did not show any activity”. For the same compound, the IC50 at HCV NTPase/helicase [2] was more than 1860 µM.
For `COC(=O)c1cccc2oc(-c3cccc4oc(-c5ccccc5O)nc34)nc12` [Compound 1, UK-1], the pEC50 in data set [1] was 6.68; with HCV, 6.14. The “activity against HCV” value in [1] is recorded as “still active against HCV”. The pIC50 is less than 4.70 in data set [5], less than 2.89 at HCV NTPase/helicase [3] (setting [6]), 4.94 in data set [4] and less than 2.89 at HCV ATPase (read-out: ATPase (IC50)). Besides, the “activity in HCV NTPase/helicase assay (in words)” value on HCV NTPase/helicase [2] is “inactive; also recorded: did not show any activity”. The “inhibition of NTPase/helicase of HCV (in words)” value at HCV NTPase/helicase [2] is listed as “inhibit”. The IC50 at HCV NTPase/helicase [2] is 378 µM.
